In the supplement of paper PMC6411743 one finds pEC50 data, which are given here for 80 targets.

Some results are limits rather than exact numbers.

Sequence of UniProt O95749 (O95749 whole entry): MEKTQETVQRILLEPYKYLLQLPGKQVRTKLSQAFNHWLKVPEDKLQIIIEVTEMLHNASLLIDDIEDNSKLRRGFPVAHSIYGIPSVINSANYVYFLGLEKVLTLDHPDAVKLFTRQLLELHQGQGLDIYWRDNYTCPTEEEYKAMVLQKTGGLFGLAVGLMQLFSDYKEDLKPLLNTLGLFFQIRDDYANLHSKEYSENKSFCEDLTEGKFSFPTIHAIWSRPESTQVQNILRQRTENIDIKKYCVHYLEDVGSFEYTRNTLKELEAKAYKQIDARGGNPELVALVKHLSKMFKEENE
Sequence of UniProt P00367 (P00367 whole entry): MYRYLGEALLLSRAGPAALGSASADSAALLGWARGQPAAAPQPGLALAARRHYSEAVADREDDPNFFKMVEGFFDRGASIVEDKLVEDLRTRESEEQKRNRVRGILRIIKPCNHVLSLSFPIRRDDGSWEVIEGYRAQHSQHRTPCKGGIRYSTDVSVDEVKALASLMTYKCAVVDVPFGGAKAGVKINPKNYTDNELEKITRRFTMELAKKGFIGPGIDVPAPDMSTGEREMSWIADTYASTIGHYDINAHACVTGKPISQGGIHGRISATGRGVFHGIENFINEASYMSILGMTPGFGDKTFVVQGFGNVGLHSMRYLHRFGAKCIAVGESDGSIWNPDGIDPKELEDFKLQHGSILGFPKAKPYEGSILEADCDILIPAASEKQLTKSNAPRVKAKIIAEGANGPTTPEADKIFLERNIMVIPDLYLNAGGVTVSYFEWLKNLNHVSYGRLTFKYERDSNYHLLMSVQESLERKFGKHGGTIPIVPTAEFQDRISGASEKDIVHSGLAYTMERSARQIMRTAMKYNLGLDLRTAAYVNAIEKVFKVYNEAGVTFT
Sequence of UniProt Q13588 (Q13588 whole entry): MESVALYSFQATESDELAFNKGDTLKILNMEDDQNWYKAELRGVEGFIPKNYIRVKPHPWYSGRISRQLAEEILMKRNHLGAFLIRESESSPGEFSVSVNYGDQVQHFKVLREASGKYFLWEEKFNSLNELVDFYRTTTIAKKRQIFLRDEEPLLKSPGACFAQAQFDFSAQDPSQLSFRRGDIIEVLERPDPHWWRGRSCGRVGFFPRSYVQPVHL
Sequence of UniProt Q9UNN5 (Q9UNN5 whole entry): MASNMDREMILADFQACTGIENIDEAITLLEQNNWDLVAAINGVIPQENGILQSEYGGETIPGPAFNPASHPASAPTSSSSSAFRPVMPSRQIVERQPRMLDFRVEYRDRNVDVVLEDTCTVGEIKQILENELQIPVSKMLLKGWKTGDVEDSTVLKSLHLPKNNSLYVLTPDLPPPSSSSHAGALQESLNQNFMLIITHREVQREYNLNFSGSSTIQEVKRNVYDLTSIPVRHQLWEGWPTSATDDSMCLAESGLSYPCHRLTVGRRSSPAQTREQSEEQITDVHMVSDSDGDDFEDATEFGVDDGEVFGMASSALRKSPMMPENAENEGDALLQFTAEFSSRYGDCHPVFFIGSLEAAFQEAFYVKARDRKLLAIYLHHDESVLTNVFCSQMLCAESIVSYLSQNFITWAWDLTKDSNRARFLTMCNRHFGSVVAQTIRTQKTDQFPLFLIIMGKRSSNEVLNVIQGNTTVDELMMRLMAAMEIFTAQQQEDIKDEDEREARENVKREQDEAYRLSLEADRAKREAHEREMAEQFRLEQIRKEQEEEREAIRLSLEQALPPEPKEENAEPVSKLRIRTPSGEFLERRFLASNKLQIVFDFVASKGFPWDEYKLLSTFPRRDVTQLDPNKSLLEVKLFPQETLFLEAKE
Sequence of UniProt Q99714 (Q99714 whole entry): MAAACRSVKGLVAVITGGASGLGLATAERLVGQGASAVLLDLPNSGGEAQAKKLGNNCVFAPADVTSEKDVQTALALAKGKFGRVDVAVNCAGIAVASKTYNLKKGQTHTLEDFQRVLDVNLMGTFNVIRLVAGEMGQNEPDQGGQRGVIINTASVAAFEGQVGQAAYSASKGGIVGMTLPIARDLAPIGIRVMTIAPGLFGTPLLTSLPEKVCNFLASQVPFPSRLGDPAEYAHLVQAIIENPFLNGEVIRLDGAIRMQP
Sequence of UniProt Q9Y285 (Q9Y285 whole entry): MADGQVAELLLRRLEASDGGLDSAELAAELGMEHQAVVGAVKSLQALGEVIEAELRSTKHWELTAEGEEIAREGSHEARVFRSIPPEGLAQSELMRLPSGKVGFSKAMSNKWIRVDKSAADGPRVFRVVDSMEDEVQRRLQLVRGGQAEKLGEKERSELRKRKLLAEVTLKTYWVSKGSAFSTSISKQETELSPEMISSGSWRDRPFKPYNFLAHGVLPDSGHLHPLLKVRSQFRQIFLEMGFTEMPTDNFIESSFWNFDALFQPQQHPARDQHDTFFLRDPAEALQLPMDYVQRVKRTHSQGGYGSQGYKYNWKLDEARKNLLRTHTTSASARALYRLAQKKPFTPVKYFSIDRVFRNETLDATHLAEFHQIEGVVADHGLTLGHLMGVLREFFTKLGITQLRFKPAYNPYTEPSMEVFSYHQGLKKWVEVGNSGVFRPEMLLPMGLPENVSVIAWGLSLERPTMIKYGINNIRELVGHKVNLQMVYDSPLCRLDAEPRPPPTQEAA
Sequence of UniProt P07954 (P07954 whole entry): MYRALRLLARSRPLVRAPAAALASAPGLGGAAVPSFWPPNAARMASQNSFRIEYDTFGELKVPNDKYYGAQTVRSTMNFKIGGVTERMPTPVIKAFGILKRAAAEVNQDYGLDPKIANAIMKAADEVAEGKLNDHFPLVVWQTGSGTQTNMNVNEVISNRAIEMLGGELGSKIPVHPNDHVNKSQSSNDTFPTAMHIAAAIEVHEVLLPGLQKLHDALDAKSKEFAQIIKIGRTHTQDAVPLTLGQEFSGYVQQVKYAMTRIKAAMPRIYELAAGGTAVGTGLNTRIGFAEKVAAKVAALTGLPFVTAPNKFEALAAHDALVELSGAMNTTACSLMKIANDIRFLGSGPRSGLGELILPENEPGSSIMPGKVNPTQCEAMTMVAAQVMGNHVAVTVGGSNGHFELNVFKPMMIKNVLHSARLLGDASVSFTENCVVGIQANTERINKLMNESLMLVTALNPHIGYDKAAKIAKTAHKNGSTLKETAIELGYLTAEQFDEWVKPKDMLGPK
Sequence of UniProt Q96KP1 (Q96KP1 whole entry): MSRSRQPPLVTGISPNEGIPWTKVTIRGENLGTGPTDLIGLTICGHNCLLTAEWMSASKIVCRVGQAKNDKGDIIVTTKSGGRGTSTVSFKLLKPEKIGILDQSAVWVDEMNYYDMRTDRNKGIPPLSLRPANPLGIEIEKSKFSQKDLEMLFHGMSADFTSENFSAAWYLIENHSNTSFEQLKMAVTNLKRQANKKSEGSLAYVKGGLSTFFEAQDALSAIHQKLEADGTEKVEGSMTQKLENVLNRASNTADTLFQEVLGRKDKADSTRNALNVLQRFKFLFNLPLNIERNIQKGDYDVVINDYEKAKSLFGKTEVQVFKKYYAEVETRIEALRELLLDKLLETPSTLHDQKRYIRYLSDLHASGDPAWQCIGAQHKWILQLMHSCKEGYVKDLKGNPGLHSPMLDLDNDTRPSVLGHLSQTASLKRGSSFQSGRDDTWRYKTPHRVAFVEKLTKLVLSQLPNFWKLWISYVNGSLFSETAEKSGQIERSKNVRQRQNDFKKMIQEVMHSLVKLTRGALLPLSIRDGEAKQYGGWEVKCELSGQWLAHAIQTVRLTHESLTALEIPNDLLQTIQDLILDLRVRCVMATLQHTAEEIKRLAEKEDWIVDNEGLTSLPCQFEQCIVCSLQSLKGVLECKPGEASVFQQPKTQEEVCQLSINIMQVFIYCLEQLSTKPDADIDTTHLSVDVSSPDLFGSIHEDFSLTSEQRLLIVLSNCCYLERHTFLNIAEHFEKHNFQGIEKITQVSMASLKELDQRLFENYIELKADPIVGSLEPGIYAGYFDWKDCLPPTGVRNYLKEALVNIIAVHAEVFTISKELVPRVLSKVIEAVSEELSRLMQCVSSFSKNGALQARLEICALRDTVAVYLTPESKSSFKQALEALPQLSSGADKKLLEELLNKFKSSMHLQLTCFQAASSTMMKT
Sequence of UniProt P13929 (P13929 whole entry): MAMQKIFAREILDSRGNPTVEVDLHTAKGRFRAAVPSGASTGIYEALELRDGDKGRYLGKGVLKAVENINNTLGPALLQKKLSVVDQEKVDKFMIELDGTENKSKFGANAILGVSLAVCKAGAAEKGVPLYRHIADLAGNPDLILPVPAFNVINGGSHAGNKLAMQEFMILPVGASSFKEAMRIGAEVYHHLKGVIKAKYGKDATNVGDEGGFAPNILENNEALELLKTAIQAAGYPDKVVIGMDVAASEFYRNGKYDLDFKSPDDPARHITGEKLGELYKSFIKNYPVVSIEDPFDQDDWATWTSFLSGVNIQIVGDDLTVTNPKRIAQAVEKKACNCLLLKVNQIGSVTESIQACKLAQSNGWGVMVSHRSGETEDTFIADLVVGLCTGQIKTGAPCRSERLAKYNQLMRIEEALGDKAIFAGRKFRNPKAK
Sequence of UniProt Q9NWS6 (Q9NWS6 whole entry): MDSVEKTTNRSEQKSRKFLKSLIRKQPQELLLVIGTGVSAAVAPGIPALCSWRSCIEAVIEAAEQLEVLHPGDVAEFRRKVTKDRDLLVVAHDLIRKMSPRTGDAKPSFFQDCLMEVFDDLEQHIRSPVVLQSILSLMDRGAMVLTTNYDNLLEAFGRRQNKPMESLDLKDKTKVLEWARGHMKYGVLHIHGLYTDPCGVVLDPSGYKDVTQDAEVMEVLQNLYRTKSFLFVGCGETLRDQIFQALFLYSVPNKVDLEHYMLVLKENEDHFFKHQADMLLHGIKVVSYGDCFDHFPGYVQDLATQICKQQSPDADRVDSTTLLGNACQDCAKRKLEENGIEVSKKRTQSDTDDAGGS
Sequence of UniProt P16403 (P16403 whole entry): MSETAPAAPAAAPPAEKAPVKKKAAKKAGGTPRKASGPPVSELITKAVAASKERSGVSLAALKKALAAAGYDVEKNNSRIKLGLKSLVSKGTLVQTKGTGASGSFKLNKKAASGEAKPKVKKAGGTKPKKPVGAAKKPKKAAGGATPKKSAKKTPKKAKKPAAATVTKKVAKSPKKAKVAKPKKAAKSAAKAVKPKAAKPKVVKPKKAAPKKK

Compound in the assay: Nc1ncnc2c1ncn2[C@@H]1O[C@H](COP(=O)(O)OP(=O)(O)OP(=O)(O)O)[C@@H](O)[C@H]1O [adenosine triphosphate]
The experiment in a line: pEC50 of ATP-induced change in protein thermal stability (2D-TPP). The procedure: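 2D thermal proteome profiling in mechanically disrupted Jurkat crude lysate. Lysate was treated 10 min at room temperature with Na-ATP (0, 0.005, 0.05, 0.5, 2 mM), heated to 12 temperatures (42-63.9 °C) for 3 min, and soluble protein was quantified by TMT10 LC-MS/MS. pEC50 is the median over replicates of dose-response fits at the lowest temperature showing a fold change of at least 1.5 (FDR-controlled hits).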
The pEC50 is −log10 of the EC50, conventionally taken in molar units. With “EML4 (effect direction: destabilized) (UniProt Q9HC35)”, the pEC50 came out at 2.93.

For “ENO1 (effect direction: destabilized) (UniProt P06733)”, the negative logarithm of the EC50 (pEC50) is < 2.7.

Consider “ENO2 (effect direction: destabilized) (UniProt P09104)”, for which the pEC50 was found to be 2.99.

On to “ENO3 (effect direction: destabilized) (UniProt P13929)”, for which the pEC50 was < 2.7.

For the target “EPRS (effect direction: destabilized) (UniProt P07814)”, the pEC50 worked out at 4.04.

Take “EPS15L1 (effect direction: destabilized) (UniProt Q9UBC2)”: the pEC50 is 2.94.

Take “ETFA (effect direction: stabilized) (UniProt P13804)”: the negative-log EC50 (pEC50) is < 2.7.

Turning to “EXOC2 (effect direction: stabilized) (UniProt Q96KP1)”, the pEC50 is 3.

Turning to “FAF1 (effect direction: stabilized) (UniProt Q9UNN5)”, the pEC50 is 2.79.

On to “FAHD2A (effect direction: destabilized) (UniProt Q96GK7)”, for which the negative logarithm of the EC50 (pEC50) was < 2.7.

Take “FAM20B (effect direction: stabilized) (UniProt O75063)”: the pEC50 was 3.12.

Consider “FAM49B (effect direction: stabilized) (UniProt Q9NUQ9)”, for which the pEC50 worked out at 2.78.

Turning to “FAM118A (effect direction: stabilized) (UniProt Q9NWS6)”, the negative logarithm of the EC50 (pEC50) came to 3.19.

“FAM162A (effect direction: destabilized) (UniProt Q96A26)”: the pEC50 was 3.13.

As for “FARSA (effect direction: stabilized) (UniProt Q9Y285)”, the negative-log EC50 (pEC50) was determined as 3.47.

Regarding “FARSB (effect direction: stabilized) (UniProt Q9NSD9)”, the negative logarithm of the EC50 (pEC50) came out at 3.16.

Take “FBL (effect direction: destabilized) (UniProt P22087)”: the pEC50 turned out to be 3.44.

Turning to “FDXR (effect direction: stabilized) (UniProt P22570)”, the pEC50 turned out to be 3.26.

As for “FH (effect direction: stabilized) (UniProt P07954)”, the negative logarithm of the EC50 (pEC50) is 3.08.

As for “FIGNL1 (effect direction: stabilized) (UniProt Q6PIW4)”, the pEC50 was determined as 3.82.

For “FKBP4 (effect direction: stabilized) (UniProt Q02790)”, the pEC50 is < 2.7.

Take “FKBP5 (effect direction: stabilized) (UniProt Q13451)”: the negative logarithm of the EC50 (pEC50) was < 2.7.

On to “FKBP8 (effect direction: stabilized) (UniProt Q14318)”, for which the pEC50 worked out at 3.36.

For the target “FN3KRP (effect direction: stabilized) (UniProt Q9HA64)”, the pEC50 turned out to be 4.17.

As to “FNTA (effect direction: stabilized) (UniProt P49354)”, the negative logarithm of the EC50 (pEC50) was 3.22.

On to “FOXK1 (effect direction: stabilized) (UniProt P85037)”, for which the negative-log EC50 (pEC50) was determined as 3.36.

Consider “FOXK2 (effect direction: stabilized) (UniProt Q01167)”, for which the negative logarithm of the EC50 (pEC50) is 3.76.

Turning to “FTSJ3 (effect direction: destabilized) (UniProt Q8IY81)”, the pEC50 stood at 3.22.

On to “FUCA1 (effect direction: destabilized) (UniProt P04066)”, for which the pEC50 is > 5.3.

“G6PD (effect direction: stabilized) (UniProt P11413)”: the pEC50 was < 2.7.

Take “GAPDH (effect direction: stabilized) (UniProt P04406)”: the pEC50 was < 2.7.

Turning to “GART (effect direction: stabilized) (UniProt P22102)”, the negative-log EC50 (pEC50) is 4.88.

Consider “GGPS1 (effect direction: destabilized) (UniProt O95749)”, for which the negative logarithm of the EC50 (pEC50) worked out at 2.94.

On to “GLA (effect direction: stabilized) (UniProt P06280)”, for which the negative logarithm of the EC50 (pEC50) was found to be 3.03.

As to “GLB1 (effect direction: stabilized) (UniProt P16278)”, the pEC50 came out at 3.35.

“GLO1 (effect direction: destabilized) (UniProt Q04760)”: the negative logarithm of the EC50 (pEC50) was < 2.7.

For the target “GLOD4 (effect direction: stabilized) (UniProt Q9HC38)”, the pEC50 is < 2.7.

With “GLRX3 (effect direction: stabilized) (UniProt O76003)”, the pEC50 was < 2.7.

Regarding “GLUD1 (effect direction: stabilized) (UniProt P00367)”, the pEC50 is 4.21.

As to “GNAS (effect direction: stabilized) (UniProt P63092)”, the negative-log EC50 (pEC50) is < 2.7.

On to “GNE (effect direction: stabilized) (UniProt Q9Y223)”, for which the pEC50 was found to be 3.16.

Take “GPD1L (effect direction: stabilized) (UniProt Q8N335)”: the negative logarithm of the EC50 (pEC50) worked out at 3.09.

As for “GPKOW (effect direction: stabilized) (UniProt Q92917)”, the pEC50 came out at 3.19.

With “GPN1 (effect direction: destabilized) (UniProt Q9HCN4)”, the negative logarithm of the EC50 (pEC50) turned out to be 2.83.

With “GPN3 (effect direction: destabilized) (UniProt Q9UHW5)”, the negative-log EC50 (pEC50) was 2.74.

For “GPS1 (effect direction: stabilized) (UniProt Q13098)”, the pEC50 was < 2.7.

As for “GRAMD4 (effect direction: stabilized) (UniProt Q6IC98)”, the negative-log EC50 (pEC50) came to 3.13.

For the target “GRAP (effect direction: stabilized) (UniProt Q13588)”, the pEC50 was 3.54.

On to “GRPEL1 (effect direction: destabilized) (UniProt Q9HAV7)”, for which the negative-log EC50 (pEC50) was determined as 4.04.

Turning to “GRSF1 (effect direction: stabilized) (UniProt Q12849)”, the pEC50 was determined as 2.83.

On to “GSN (effect direction: stabilized) (UniProt P06396)”, for which the negative-log EC50 (pEC50) is 2.94.

For “GSS (effect direction: stabilized) (UniProt P48637)”, the pEC50 was found to be 3.56.

As to “GSTO1 (effect direction: stabilized) (UniProt P78417)”, the pEC50 was < 2.7.

Turning to “GTF2B (effect direction: stabilized) (UniProt Q00403)”, the negative-log EC50 (pEC50) is 3.26.

On to “GTF2I (effect direction: stabilized) (UniProt P78347)”, for which the negative-log EC50 (pEC50) is 3.28.

For “GTF3A (effect direction: stabilized) (UniProt Q92664)”, the pEC50 was found to be 3.03.

Regarding “GTPBP1 (effect direction: stabilized) (UniProt O00178)”, the pEC50 amounted to 3.28.

As for “GYS1 (effect direction: destabilized) (UniProt P13807)”, the pEC50 was found to be 5.03.

“H1FX (effect direction: destabilized) (UniProt Q92522)”: the pEC50 is < 2.7.

With “HEATR3 (effect direction: stabilized) (UniProt Q7Z4Q2)”, the pEC50 amounted to 2.83.

On to “HEXA (effect direction: stabilized) (UniProt P06865)”, for which the pEC50 is 3.22.

For “HEXB (effect direction: stabilized) (UniProt P07686)”, the pEC50 is 3.01.

Regarding “HIST1H1B (effect direction: destabilized) (UniProt P16401)”, the negative-log EC50 (pEC50) was < 2.7.

For “HIST1H1C (effect direction: destabilized) (UniProt P16403)”, the pEC50 was determined as 4.05.

As to “HLTF (effect direction: stabilized) (UniProt Q14527)”, the pEC50 worked out at 4.11.

For “HMGN4 (effect direction: stabilized) (UniProt O00479)”, the negative-log EC50 (pEC50) amounted to 3.52.

“HNRNPF (effect direction: stabilized) (UniProt P52597)”: the pEC50 is < 2.7.

With “HNRNPH1 (effect direction: stabilized) (UniProt P31943)”, the pEC50 stood at 2.93.

“HNRNPL (effect direction: stabilized) (UniProt P14866)”: the negative-log EC50 (pEC50) was determined as 3.23.

As for “HNRNPR (effect direction: stabilized) (UniProt O43390)”, the pEC50 worked out at 3.04.

Regarding “HNRNPU (effect direction: stabilized) (UniProt Q00839)”, the pEC50 was 2.9.

On to “HNRNPUL2 (effect direction: stabilized) (UniProt Q1KMD3)”, for which the negative-log EC50 (pEC50) came to 3.39.

“HSD17B7 (effect direction: stabilized) (UniProt P56937)”: the pEC50 stood at 3.22.

As to “HSD17B10 (effect direction: stabilized) (UniProt Q99714)”, the pEC50 is 3.24.

Turning to “HSP90AA1 (effect direction: stabilized) (UniProt P07900)”, the pEC50 was > 5.3.

“HSP90AB1 (effect direction: stabilized) (UniProt P08238)”: the negative-log EC50 (pEC50) was < 2.7.

In the case of “HSPA4 (effect direction: stabilized) (UniProt P34932)”, the pEC50 was < 2.7.

“HSPA8 (effect direction: stabilized) (UniProt P11142)”: the negative logarithm of the EC50 (pEC50) amounted to 4.09.

As to “HSPA9 (effect direction: stabilized) (UniProt P38646)”, the negative logarithm of the EC50 (pEC50) worked out at 3.94.

On to “HSPA14 (effect direction: stabilized) (UniProt Q0VDF9)”, for which the pEC50 was determined as 2.8.
